Reference: patent US20090104124A1, “Paramagnetic Complexes with Pendant Crown Compounds Showing Improved Targeting- Specificity as MRI Contrast Agents” (priority 2007, published 2009)

Key:
MIHA cells [1] = assay: AO/EB staining, laser scanning confocal microscopy of cell morphology; format: cell-based; details: 10 μM, up to 24 h of incubation
Experimental: MIHA cells in the absence (control) and presence of Gd-DOTA (10 μM), Gd-DO3A (10 μM), and GdL1 (10 μM) incubated at 37° C. and 5% CO2, 95% air in a humidified incubator for 1 h, 2 h, 8 h, and 24 h, respectively.
Based on cell morphology and cell membrane integrity, normal, necrotic, and apoptotic cells can be distinguished using laser confocal microscopy. FIG. 22 gives the cell morphology in the absence and presence of Gd-DOTA (10 μM), Gd-DO3A (10 μM), and GdL1 (10 μM) at various time intervals after the incubation. In the absence or presence of the Gd^3+ complexes, the nuclei of the living cells were stained as bright blue spots in the nucleus.

[2] = 1H NMRD profiles (water proton relaxivity); format: physicochemical; details: for D: 25° C., pH 6.9, fits of NMRD profile and 17O NMR
Source text: (§1) Measuring the relaxation rates of an abundant nuclear species as a function of the magnetic field over a wide range is called relaxometry. A relaxometry profile is a plot of the nuclear magnetic relaxation rate, usually 1/T1, as a function of the Larmor frequency or the magnetic field. This profile is also called a Nuclear Magnetic Resonance Dispersion (NMRD) profile. Compared with the NMRD profile, the prominent advantage of the ^17O NMR technique is that it allows the accurate determination of the water exchange rate 1/τM. This is a consequence of the oxygen nucleus being closer to the paramagnetic centre when bound in the inner-sphere, wherein the outer-sphere contributions to the relaxation rates are negligibly small. With the help of NMRD profiles, ^17O NMR measurements, and the Soloman-Bloemnergen-Morgan theory, several important parameters, such as τM, τR, τv, Δ^2 and τH, can be measured.
Water proton nuclear magnetic resonance dispersion NMRD profile is used to record the longitudinal water proton relaxation rates as a function of magnetic fields. The method is, in principle, sensitive to all of the parameters that influence relaxivity. […] The relaxometer worked under complete control with an absolute uncertainty in 1/T1 of ±2%. The NMRD profiles were measured using 1-2 mM solutions of the complexes.

[3] = Variable-temperature 17O NMR transverse relaxation (water exchange); format: physicochemical; details: for TM (derived from VT 17O NMR spectroscopy): 25° C., pH 6.9; for exchange lifetime τM of the inner-sphere coordinated water molecules: 298 K (25° C.), 2.12 T
Source text: as §1
The variable-temperature ^17O NMR measurements were recorded on a JEOL EX-90 (2.1 T) spectrometer that was equipped with a 5 mm probe, by using a D2O external lock. The experimental settings were: spectral width of 10000 Hz, pulse width of 7 μs, acquisition time of 10 ms, 1000 scans, and no sample spinning. Solutions containing 2.6% of ^17O isotope were used. The observed transverse relaxation rates (R2obs^0) were calculated from the signal width at half height.

liver parenchyma = assay: In vivo MRI, hepatic intensity enhancement (T1-weighted); parameters: species or system male Sprague-Dawley (SD) rats; details: rat
Experimental: (§2) To study the MRI contrast and biodistribution behavior of gadolinium complexes […] pendant crown ethers, experiments were performed using male Sprague-Dawley (SD) rats that weighted 150-180 g, and were housed at the Wuhan Institute of Physical and Mathematics of the Chinese Academy of Sciences (Wuhan, Hubei Province, China). All procedures conformed to the institutional guidelines for animal welfare. The rat was injected via the femoral vein with 1 mL saline solution of GdL1 in concentrations of 0.1, 0.033, and 0.02 mM/kg, which are the standard dosage, one third and one fifth of the standard dosage used in clinic currently. MR imaging was performed on a 4.7 T Bruker BIO-SPEC-47/30 MRI scanner with a custom spiral surface coil. The animal was scanned in the prone position in the MRI experiment. […] The total duration of the dynamic scanning lasted up to 400 min after the administration, with an image every 4 min. A water tube was placed in the field of view as a phantom reference. The intensity enhancement (IE) of the region of interest (RI) at time point t is expressed by IE=100% (RI(t)-RI(0))/RI(0) where RI(t) corresponds to the normalized signal intensity as measured at time point, t and RI(0) is the normalized signal intensity precontrast.

[4] = 298 K; cited from earlier work
[5] = 20 MHz, 298 K; cited from earlier work
[6] = complex with Gd^3+; cited from earlier work
kidney cortex = assay: In vivo MRI, renal intensity enhancement (T1-weighted); parameters: species or system male Sprague-Dawley (SD) rats; details: rat, 0.1 mmol/kg
Experimental: as §2

MIHA cells [7] = assay: In vitro cytotoxicity, cell proliferation assay (MTT / XTT-based); details: 1×10^−2 M, 24 h incubation
Experimental: To further investigate the potential ability of GdL1 as an NMRI contrast agent, its cytotoxicity was measured by MTT assay. The toxicity of GdL1 was determined from the dose-dependence of surviving cells after exposure to this Gd^3+ complex at different time intervals. For comparison, the cytotoxicities of Gd-DOTA and Gd-DO3A were measured under the same conditions.
To evaluate the toxicity of prepared Gd^3+ complexes, a colorimetric assay (XTT-based) for the non-radioactive quantification of cell proliferation was applied. In the cell proliferating process, the added tetrazolium salt XTT was cleaved to a formazan dye by metabolically active cells, and the quantification of cell growth was achieved by the variation of the absorbance at 492 nm. Seed MIHA Cells at a concentration of 5×10^3 cells/well (tissue culture grade, 96 wells, flat bottom) were added to Gd^3+ complexes (0.625-10 mM) in a humidified atmosphere (37° C., 6.5% CO2). Different concentrations of drugs were adjusted by performing serial dilution. The incubation period of the cell culture ranged from 1, 2, 8, and 24 hrs. XTT dye at a concentration of 5 mg/mL (sigma, St. Louis, Mo.) was added, and the plates were incubated for 12 h in a moist chamber at 37° C. The optical density was determined by eluting the dye with dimethyl sulfoxide, and the absorbance was measured at 570 nm. […]

[8] = Luminescence lifetime measurements of Tb complexes for hydration number q; format: physicochemical; details: for kH2O, absolute emission depopulation rate constant in H2O: pH 6.9 (0.1 M Tris/HCl), 298 K, ±10%; for inner-sphere coordinated (bound) water molecules, luminescent measurements: pH 6.9
Source text: As previously mentioned, inner-sphere proton relaxivity is linearly proportional to the number of water molecules q that are directly coordinated to the Gd^3+ center. However, there is a trade-off between the q value and toxicity. […] It is noteworthy that there is no direct method of measuring the hydration number. The two commonly used indirect methods are as follows: (1) Lanthanide-induced shift (LIS) methods (see, Alpoim et al., J. Chem. Soc., Dalton Trans., 1992, 463). For paramagnetic Ln^3+ ions, the plot of the observed ^17O shift in Ln^3+ chelate solution versus the complex concentration gives a straight line, with the slope being proportional to its hydration number. (2) The lanthanide luminescence method. According to the Horrocks equation, the q value can be calculated by the emission rate constants for the depopulation of Tb^3+ or Eu^3+ complexes measured in H2O and D2O (see, Beeby at al., J. Chem. Soc., Perkin Trans. 2, 1999, 493). With this method, the q values of the Gd^3+ complexes in aqueous solution can be measured indirectly by their corresponding Tb^3+ or Eu^3+ complexes, because of the very similar coordination behavior between these three lanthanide ions.
Luminescence lifetime measurements were all obtained on a Perkin-Elmer LS 50B spectrofluorimeter with a 420 nm cut-off filter. The concentration of the complex was 1×10^−5˜1×10^−4 mol dm^−3. The emission of Tb^3+ or EU^3+ complexes was monitored at […]. Gd^3+ is a neighbor of Eu^3+ and Tb^3+ with a nearly identical ionic radius, and thus their chemistries are virtually identical. Therefore, the Horrocks equation for determining the number of coordinated water molecules q for Eu^3+ and Tb^3+ is still valid for the calculation of the q value of Gd^3+. In general, the number of coordinated water molecules q can be determined by the measurement of the luminescent lifetime of the complexes separately in H2O and D2O by application of the Horrocks equation.
qcorr=A(kH2O−kD2O−a)
where k is the constant for depopulation (reciprocal of luminescent lifetime), and A is a proportionality constant that signifies the sensitivity of the lanthanide ion to vibronic quenching by OH oscillators. a is correlation value for the consideration of the outer-sphere water molecules.

| Compound | apoptotic or necrotic cells (cell morphology, AO/EB) (MIHA cells [1]) | D [2] [cm^2s^−1] | TM (derived from VT 17O NMR spectroscopy) [3] [ns] | exchange lifetime τM of the inner-sphere coordinated water molecules [3] [ns] | kH2O, absolute emission depopulation rate constant in H2O [8] [ms^−1] | also measured |
| --- | --- | --- | --- | --- | --- | --- |
| O=C([O-])CN1CCNCCN(CC(=O)[O-])CCN(CC(=O)[O-])CC1.[Gd+3] [Gd-DO3A, reference compound] | no obvious apoptotic or necrotic cells were found | 2.24E−5 | 160 | 160 |  |  |
| O=C([O-])CN1CCN(CC(=O)[O-])CCN(CC(=O)O)CCN(CC(=O)[O-])CC1.[Gd+3] [Gd-DOTA, reference compound] | no obvious apoptotic or necrotic cells were found | 2.24E−5 | 300 | 245 |  | maximal hepatic IE (liver parenchyma; 0.02 mmol/kg (1/5 of standard dose)): no remarkable hepatic IE was detected; bound water molecular resident lifetime τM (typical values) [4]: about 244 ns; relaxivity r1p (typical values) [5]: 4.74 mM⁻¹ s⁻¹ |
| O=C([O-])CN(CCN(CC(=O)[O-])CC(=O)O)CCN(CC(=O)[O-])CC(=O)O.[Gd+3] [Gd-DTPA] |  | 2.24E−5 | 250 |  |  | log K (K = formation constant of the metal complex) [6]: 24.6; bound water molecular resident lifetime τM (typical values) [4]: ~303 ns; relaxivity r1p (typical values) [5]: 4.69 mM⁻¹ s⁻¹ |
| O=C([O-])CN1CCN(CCN2CCOCCOCCOCCOCC2)CCN(CC(=O)[O-])CCN(CC(=O)[O-])CC1.[Gd+3] [GdL1] | no obvious apoptotic or necrotic cells were found | 2.24E−5 | 55 | 55 |  | time after injection of maximal hepatic IE (liver parenchyma; 0.03 mmol/kg): 60 to 100 min; hepatic IE on plateau (liver parenchyma; 0.033 mmol/kg): > 60%; resident lifetime in hepatic tissue (liver parenchyma; 0.1 mmol/kg): > 4 h; inner-sphere coordinated water molecules from 1H NMRD profiles [2]: two; renal IE still preserved 250 minutes after injection (kidney cortex): 40%; viability of the MIHA cells (MIHA cells [7]): not affected obviously |
| O=C([O-])CN1CCN(CCOCC2COCCOCCOCCOCCO2)CCN(CC(=O)[O-])CCN(CC(=O)[O-])CC1.[Gd+3] (stereo not drawn) [GdL2] |  | 2.24E−5 | 116 | 116 |  | level of hepatic enhancement maintained for more than 4 h (liver parenchyma; 0.1 mmol/kg): > 60%; time for which hepatic intensity enhancement was maintained (liver parenchyma; 0.1 mmol/kg): more than 4 h; overall relaxivity r1p ([2]; 20 MHz, pH 10.0): 4.21 mM⁻¹ s⁻¹ |
| O=C([O-])CN1CCN(CC(=O)[O-])CCN(CC(=O)N2CCOCCOCCN(Cc3ccc4ccccc4n3)CCOCCOCC2)CCN(CC(=O)[O-])CC1.[Gd+3] [GdL3] |  | 2.24E−5 | 246 | 246 |  | level of hepatic enhancement maintained for more than 4 h (liver parenchyma; 0.1 mmol/kg): about 50%; time for which hepatic intensity enhancement was maintained (liver parenchyma; 0.1 mmol/kg): more than 4 h; reorientation lifetime τR [2]: 210 ps; q from NMRD profile ([2]; pH 7.5): 1 |
| O=C([O-])CN1CCNCCN(CC(=O)[O-])CCN(CC(=O)[O-])CC1.[Tb+3] [Tb-DO3A, reference compound] |  |  |  |  | 0.88 |  |
| O=C([O-])CN1CCN(CC(=O)[O-])CCN(CC(=O)[O-])CCN(CC(=O)[O-])CC1.[Tb+3] [Tb-DOTA, reference compound] |  |  |  |  | 0.48 |  |
| O=C([O-])CN1CCN(CCN2CCOCCOCCOCCOCC2)CCN(CC(=O)[O-])CCN(CC(=O)[O-])CC1.[Tb+3] [TbL1] |  |  |  |  | 0.72 | inner-sphere coordinated (bound) water molecules, luminescent measurements [8]: two |
| O=C([O-])CN1CCN(CC(=O)[O-])CCN(CC(=O)N2CCOCCOCCN(Cc3ccc4ccccc4n3)CCOCCOCC2)CCN(CC(=O)[O-])CC1.[Tb+3] [TbL3] |  |  |  |  | 0.50 | inner-sphere coordinated (bound) water molecules, luminescent measurements [8]: only one |
